From patent US9353082B2, “Pharmaceutical compounds” (BIAL—PORTELA & CA, S.A., priority 2008, dated 2016)

What was measured:
[1] = molecular target: T1, FAAH (Rattus norvegicus, UniProt P97612); test: In vitro FAAH activity in rat brain membranes, 3H-AEA substrate, % of control; assay type: biochemical, Wistar rats; settings: low value = strong inhibitor; for In Vitro FAAH activity, 100 nM: 100 nM test compound; for In Vitro FAAH activity, 10 uM: 10 uM test compound; for In Vitro 100 nM (FAAH activity, % of control): rat brain membranes, compound at 100 nM
T1 construct: Frozen brains (without cerebellum) from Wistar rats were used; from tissue; host or cells: Wistar rat brain (without cerebellum), washed membrane pellets
T1 sequence (P97612 1-579): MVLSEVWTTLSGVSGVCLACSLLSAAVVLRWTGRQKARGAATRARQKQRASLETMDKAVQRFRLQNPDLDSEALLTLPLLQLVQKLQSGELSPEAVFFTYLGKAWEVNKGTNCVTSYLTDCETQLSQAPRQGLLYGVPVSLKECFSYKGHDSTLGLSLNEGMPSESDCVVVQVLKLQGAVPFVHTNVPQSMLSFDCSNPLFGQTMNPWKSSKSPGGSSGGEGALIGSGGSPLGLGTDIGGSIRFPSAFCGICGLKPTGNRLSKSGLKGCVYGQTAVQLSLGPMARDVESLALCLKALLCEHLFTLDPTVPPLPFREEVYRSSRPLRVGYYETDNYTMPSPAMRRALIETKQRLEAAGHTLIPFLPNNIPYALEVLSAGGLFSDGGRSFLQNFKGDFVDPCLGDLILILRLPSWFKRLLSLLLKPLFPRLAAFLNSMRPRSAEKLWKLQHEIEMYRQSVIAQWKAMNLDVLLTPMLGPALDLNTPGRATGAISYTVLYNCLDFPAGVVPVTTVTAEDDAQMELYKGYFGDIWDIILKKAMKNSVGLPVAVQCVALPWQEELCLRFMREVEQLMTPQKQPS
Method in brief: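 Wistar rat brain membranes (5 μg protein) preincubated 15 min at 37 °C with compound at 10 μM or 0.1 μM (0.1% DMSO), then 2 μM AEA including 3H-AEA with 0.1% BSA, Tris pH 7.6, 10 min. 3H-ethanolamine counted after charcoal stop; % of no-compound control after blank subtraction.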

[2] = molecular target: T2, FAAH (Mus musculus, UniProt O08914); test: In vivo FAAH inhibition after oral dosing, remaining activity in brain homogenate (BRh, central nervous tissue); design: species or system NMRI mice; settings: brain homogenate; for In Vivo BRh 3 mg·kg 8 h (remaining FAAH activity, % of control): 8 h after dosing, low value = strong inhibitor
T2 construct: A fragment of liver, left lung lobe and brain without cerebellum were removed; from tissue; host or cells: male NMRI mice; brain (without cerebellum) and liver homogenates
T2 sequence (O08914 1-579): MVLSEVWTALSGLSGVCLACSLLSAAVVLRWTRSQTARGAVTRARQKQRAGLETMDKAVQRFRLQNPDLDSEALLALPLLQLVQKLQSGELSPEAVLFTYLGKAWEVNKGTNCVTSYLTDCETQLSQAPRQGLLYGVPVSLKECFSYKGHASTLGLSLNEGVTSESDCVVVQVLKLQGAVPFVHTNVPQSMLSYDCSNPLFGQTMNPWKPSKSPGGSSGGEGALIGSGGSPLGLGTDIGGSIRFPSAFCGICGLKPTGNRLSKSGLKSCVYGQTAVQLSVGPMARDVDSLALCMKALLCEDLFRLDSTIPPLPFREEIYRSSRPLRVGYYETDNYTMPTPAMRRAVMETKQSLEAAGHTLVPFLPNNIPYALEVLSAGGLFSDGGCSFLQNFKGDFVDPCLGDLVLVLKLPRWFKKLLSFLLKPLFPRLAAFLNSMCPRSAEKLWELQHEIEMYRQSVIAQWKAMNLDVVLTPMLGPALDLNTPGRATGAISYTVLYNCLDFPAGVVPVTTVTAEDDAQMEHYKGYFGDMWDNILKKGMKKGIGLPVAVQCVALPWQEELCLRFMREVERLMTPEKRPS
Method in brief: (§1)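 Male NMRI mice, fasted overnight, got 30 or 3 mg/kg compound orally (0.5% CMC suspension or water) and were compared with vehicle controls. Brain (no cerebellum) and liver homogenates were incubated with 2 μM AEA plus 5 nM 3H-AEA at 37 °C, 10 min for brain and 7 min for liver. Remaining FAAH activity is % of vehicle after blank subtraction.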

[3] = molecular target: T2, FAAH; test: In vivo FAAH inhibition after oral dosing, remaining activity in liver homogenate (LVh, peripheral tissue); design: species or system NMRI mice; settings: liver homogenate; for In Vivo LVh 3 mg·kg 8 h (remaining FAAH activity, % of control): 8 h after dosing, low value = strong inhibitor
Method in brief: as §1

SMILES | In Vitro FAAH activity, 100 nM [1] | In Vitro FAAH activity, 10 uM [1] | In Vivo BRh 3 mg/kg 8 h, remaining FAAH activity [2] | In Vivo BRh 30 mg/kg 1 h, remaining FAAH activity [2] | In Vivo LVh 3 mg/kg 8 h, remaining FAAH activity [3] | In Vivo LVh 30 mg/kg 1 h, remaining FAAH activity [3] | In Vitro 100 nM (FAAH activity, % of control) [1] | In Vivo BRh 3 mg·kg 8 h (remaining FAAH activity, % of control) [2] | In Vivo LVh 3 mg·kg 8 h (remaining FAAH activity, % of control) [3]
CN(C(=O)n1cnc(-c2ccc(F)c(O)c2)c1)C1CCCCC1 [Compound 343, N-cyclohexyl-4-(4-fluoro-3-hydroxyphenyl)-N-methyl-1H-imidazole-1-carboxamide] | – | – | – | – | – | – | 44.7 % of control | 95.5 % of control | 19.7 % of control
CC1(C)COCN1C(=O)n1cnc(-c2cccnc2)c1.Cl.Cl [Compound 226, (4,4-dimethyloxazolidin-3-yl)(4-(pyridin-3-yl)-1H-imidazol-1-yl)methanone dihydrochloride] | 76.6 % of control | – | 8.4 % of control | – | 5.1 % of control | – | – | – | –
CN(C(=O)n1cnc(-c2ccc(N)cc2)c1)c1ccccc1 [Compound 199, 4-(4-aminophenyl)-N-methyl-N-phenyl-1H-imidazole-1-carboxamide] | 89 % of control | – | 45.9 % of control | – | 19.7 % of control | – | – | – | –
CN(Cc1ccccc1)C(=O)n1cnc(-c2ccc(Oc3ccc(C(N)=O)cc3)cc2)n1 [Compound 151, N-benzyl-3-(4-(4-carbamoylphenoxy)phenyl)-N-methyl-1H-1,2,4-triazole-1-carboxamide] | 0.4 % of control | – | 116.7 % of control | – | 65.8 % of control | – | – | – | –
CN(C(=O)n1cnc(-c2cccc(-c3ccc(C(N)=O)cc3)c2)c1)C1CCCCC1 [Compound 245, 4-(4′-carbamoylbiphenyl-3-yl)-N-cyclohexyl-N-methyl-1H-imidazole-1-carboxamide] | 0.4 % of control | – | 90.6 % of control | – | 15.8 % of control | – | – | – | –
CN(C(=O)n1nnc2ccccc21)c1ccc(F)cc1F [Compound 70, N-(2,4-difluorophenyl)-N-methyl-1H-benzo[d][1,2,3]triazole-1-carboxamide] | 1.9 % of control | – | – | 52 % of control | – | 42.5 % of control | – | – | –
CN(C(=O)n1cnc(-c2ccc(F)c(F)c2)c1)C1CCCCC1 [Compound 272, N-cyclohexyl-4-(3,4-difluorophenyl)-N-methyl-1H-imidazole-1-carboxamide] | 63.6 % of control | – | 19 % of control | – | 7.1 % of control | – | – | – | –
CC1(C)COCN1C(=O)n1cnc(-c2cccc(Oc3ccc(C(N)=O)cc3)c2)n1 [Compound 209, 4-(3-(1-(4,4-dimethyloxazolidine-3-carbonyl)-1H-1,2,4-triazol-3-yl)phenoxy)benzamide] | 101.5 % of control | – | 99.8 % of control | – | 70.1 % of control | – | – | – | –
CC1(C)COCN1C(=O)n1nnc2ccc(Br)cc21 [Compound 162, (6-bromo-1H-benzo[d][1,2,3]triazol-1-yl)(4,4-dimethyloxazolidin-3-yl)methanone] | 0 % of control | – | 0.9 % of control | – | 3.1 % of control | – | – | – | –

Second part, the compound after the results:

In Vitro FAAH activity, 100 nM [1] | In Vitro FAAH activity, 10 uM [1] | In Vivo BRh 3 mg/kg 8 h, remaining FAAH activity [2] | In Vivo BRh 30 mg/kg 1 h, remaining FAAH activity [2] | In Vivo LVh 3 mg/kg 8 h, remaining FAAH activity [3] | In Vivo LVh 30 mg/kg 1 h, remaining FAAH activity [3] | In Vitro 100 nM (FAAH activity, % of control) [1] | In Vivo BRh 3 mg·kg 8 h (remaining FAAH activity, % of control) [2] | In Vivo LVh 3 mg·kg 8 h (remaining FAAH activity, % of control) [3] | SMILES
88.8 % of control | 0.1 % of control | 102.8 % of control | 81.5 % of control | 25.6 % of control | 4.5 % of control | – | – | – | CN(C(=O)n1cnc(-c2cccc(O)c2)c1)c1ccccc1 [Compound 40, 4-(3-hydroxyphenyl)-N-methyl-N-phenyl-1H-imidazole-1-carboxamide]
0.1 % of control | – | 111.5 % of control | – | 107.3 % of control | – | – | – | – | O=C(N1CCN(C2CCCCC2)CC1)n1nnc2ccccc21 [Compound 127, (1H-benzo[d][1,2,3]triazol-1-yl)(4-cyclohexylpiperazin-1-yl)methanone]
– | – | – | – | – | – | 1.7 % of control | 121.1 % of control | 2.1 % of control | CN(C(=O)n1cnc(-c2ccc(F)c(O)c2)c1)C1CCCC1 [Compound 344, N-cyclopentyl-4-(4-fluoro-3-hydroxyphenyl)-N-methyl-1H-imidazole-1-carboxamide]
108.6 % of control | 38.3 % of control | 29.3 % of control | – | 13.3 % of control | – | – | – | – | COc1ccc(-c2cn(C(=O)N3COCC3(C)C)cn2)cc1OC [Compound 216, (4-(3,4-dimethoxyphenyl)-1H-imidazol-1-yl)(4,4-dimethyloxazolidin-3-yl)methanone]
103.7 % of control | – | 31.5 % of control | – | 20 % of control | – | – | – | – | CC1(C)OCCN1C(=O)n1cnc(-c2ccccc2)c1 [Compound 220, (2,2-dimethyloxazolidin-3-yl)(4-phenyl-1H-imidazol-1-yl)methanone]
0.8 % of control | – | 70 % of control | 10.3 % of control | 45.2 % of control | 9.8 % of control | – | – | – | O=C(N1CCC(Cc2ccccc2)CC1)n1cnc(-c2ccc(F)cc2F)n1 [Compound 79, (4-benzylpiperidin-1-yl)(3-(2,4-difluorophenyl)-1H-1,2,4-triazol-1-yl)methanone]
0.1 % of control | – | 51.7 % of control | – | 10.2 % of control | – | – | – | – | O=C(N1CCC(CCCc2ccccc2)CC1)n1nnc2ccccc21 [Compound 110, (1H-benzo[d][1,2,3]triazol-1-yl)(4-(3-phenylpropyl)piperidin-1-yl)methanone]
0 % of control | – | – | 1.4 % of control | – | 6.3 % of control | – | – | – | CN(Cc1ccccc1)C(=O)n1nnc2ccccc21 [Compound 53, N-benzyl-N-methyl-1H-benzo[d][1,2,3]triazole-1-carboxamide]
– | – | – | – | – | – | 84.3 % of control | 84.3 % of control | 48 % of control | COc1ccc(-c2cn(C(=O)N(C)C3CCCCC3)cn2)cc1F [Compound 314, N-cyclohexyl-4-(3-fluoro-4-methoxyphenyl)-N-methyl-1H-imidazole-1-carboxamide]
84.7 % of control | 0 % of control | 82.8 % of control | – | 6.5 % of control | – | – | – | – | CC1(C)COCN1C(=O)n1cnc(-c2cccc(-c3cccc(C(N)=O)c3)c2)c1 [Compound 232, 3′-(1-(4,4-dimethyloxazolidine-3-carbonyl)-1H-imidazol-4-yl)biphenyl-3-carboxamide]
